Laboratory results taken from the supplement of paper PMC8671470.

Experiments:
Conditions in all cases: 72 h
[1] = test system: HL-60; test: area under dose-response curve (viability, 1 nM-10 uM) (fraction (0-1)); higher = more sensitive
Method in brief: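 In 384-well plates, the full library was rescreened in duplicate on HL-60 cells in RPMI 1640 with 10% FBS, at 1–10,000 nM in five tenfold concentrations, for 72 h at 37 °C, 5% CO2. Each run also held DMSO or 100 nM of one of three metabolic inhibitors. Viability was measured by CellTiter-Glo and normalised to DMSO wells and to wells with proteasome inhibitor, present at 10 μM. Any area under the curve comes from four-parameter log-logistic fitting with drc and PharmacoGx.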

[2] = test system: KCL-22; test: cell viability (% survival relative to DMSO control, bortezomib = 0%); higher = less cytotoxic
Method in brief: (§1)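 In 384-well plates pre-printed with compounds at 1, 10, 100, 1000 or 10000 nM, duplicate wells received cells from 10 AML and 5 CML lines at densities within the linear growth range. The plates stayed at 37 °C with 5% CO2 for 72 h before CellTiter-Glo luminescence was recorded. Each entry is averaged percent survival. Scaling placed vehicle at 100% and a 10 µM positive control at 0%.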

[3] = test system: KG-1; test: as above
Method in brief: as §1

[4] = test system: MOLM-13; test: as above
Method in brief: as §1

[5] = co-treatment: pictilisib 100 nM
[6] = co-treatment: GSK2194069 100 nM

`CC(C)c1onc(-c2c(Cl)cccc2Cl)c1COc1ccc(/C=C/c2cccc(C(=O)O)c2)c(Cl)c1` [GW4064] was tested, and the “area under dose-response curve” value ([1]; co-treatment: AZD3965 100 nM) was less than 0.0301, the “area under dose-response curve” value ([1]; co-treatment: DMSO vehicle) was less than 0.0301 and the “area under dose-response curve” value [1, 5] was less than 0.0301. For the same compound, the cell viability ([2]; 1 nM) was 91.5%, the cell viability ([2]; 10 nM) was 93.8% and the cell viability ([2]; 100 nM) was 96%. The cell viability ([2]; 1000 nM) was 85.6%, the cell viability ([2]; 10000 nM) was 31.7% and the cell viability ([3]; 1 nM) was 85.6%. The cell viability ([3]; 10 nM) was 81.5%, the cell viability ([3]; 100 nM) was 95.8% and the cell viability ([3]; 1000 nM) was 76.8%. It also gave a cell viability ([3]; 10000 nM) of 51.2%, a cell viability ([4]; 1 nM) of 147% and a cell viability ([4]; 10 nM) of 108%. For the same compound, the cell viability ([4]; 100 nM) was 93.8%, the cell viability ([4]; 1000 nM) was 86.7% and the cell viability ([4]; 10000 nM) was -0.111%.
`CC1(C)[C@@H](O[C@H]2O[C@H](C(=O)O)[C@@H](O)[C@H](O)[C@H]2O[C@@H]2O[C@H](C(=O)O)[C@@H](O)[C@H](O)[C@H]2O)CC[C@]2(C)[C@H]3C(=O)C=C4[C@@H]5C[C@@](C)(C(=O)O)CC[C@]5(C)CC[C@@]4(C)[C@]3(C)CC[C@@H]12` [Glycyrrhizin] was tested, and the “area under dose-response curve” value ([1]; co-treatment: AZD3965 100 nM) was less than 0.0301, the “area under dose-response curve” value ([1]; co-treatment: DMSO vehicle) was less than 0.0301 and the “area under dose-response curve” value [1, 6] was less than 0.0301. The “area under dose-response curve” value [1, 5] was less than 0.0301, the cell viability ([2]; 1 nM) was 89.9% and the cell viability ([2]; 10 nM) was 95.3%. The cell viability ([2]; 100 nM) was 105%, the cell viability ([2]; 1000 nM) was 99.3% and the cell viability ([2]; 10000 nM) was 97.2%. The cell viability ([3]; 1 nM) was 90%, the cell viability ([3]; 10 nM) was 108% and the cell viability ([3]; 100 nM) was 114%. The cell viability ([3]; 1000 nM) was 101%, the cell viability ([3]; 10000 nM) was 106% and the cell viability ([4]; 1 nM) was 70.1%. The cell viability ([4]; 10 nM) was 91.4%, the cell viability ([4]; 100 nM) was 133% and the cell viability ([4]; 1000 nM) was 79.3%. It also gave a cell viability ([4]; 10000 nM) of 92.3%.
`Nc1ccccc1C(=O)C[C@H](N)C(=O)O` [L-Kynurenine] was tested, and the “area under dose-response curve” value ([1]; co-treatment: AZD3965 100 nM) was less than 0.0301, the “area under dose-response curve” value ([1]; co-treatment: DMSO vehicle) was less than 0.0301 and the “area under dose-response curve” value [1, 6] was less than 0.0301. The “area under dose-response curve” value [1, 5] was less than 0.0301, the cell viability ([2]; 1 nM) was 104% and the cell viability ([2]; 100 nM) was 96.6%. The cell viability ([2]; 1000 nM) was 103%, the cell viability ([2]; 10000 nM) was 97.3% and the cell viability ([3]; 1 nM) was 103%. The cell viability ([3]; 10 nM) was 89.4%, the cell viability ([3]; 100 nM) was 92.8% and the cell viability ([3]; 1000 nM) was 102%. It also gave a cell viability ([3]; 10000 nM) of 96.7%, a cell viability ([4]; 1 nM) of 86.5% and a cell viability ([4]; 10 nM) of 93.2%. For the same compound, the cell viability ([4]; 100 nM) was 100%, the cell viability ([4]; 1000 nM) was 97.7% and the cell viability ([4]; 10000 nM) was 66.1%.
For `N/C(=N\CCCC(N)C(=O)O)N[N+](=O)[O-]` [L-NNA], the “area under dose-response curve” value ([1]; co-treatment: AZD3965 100 nM) was less than 0.0301, the “area under dose-response curve” value ([1]; co-treatment: DMSO vehicle) was less than 0.0301 and the “area under dose-response curve” value [1, 6] was less than 0.0301. For the same compound, the “area under dose-response curve” value [1, 5] was less than 0.0301, the cell viability ([2]; 1 nM) was 92.7% and the cell viability ([2]; 10 nM) was 107%. It also gave a cell viability ([2]; 100 nM) of 106%, a cell viability ([2]; 1000 nM) of 94.8% and a cell viability ([2]; 10000 nM) of 93.5%. The cell viability ([3]; 1 nM) was 89.2%, the cell viability ([3]; 10 nM) was 93.7% and the cell viability ([3]; 100 nM) was 96.3%. It also gave a cell viability ([3]; 1000 nM) of 92.6%, a cell viability ([3]; 10000 nM) of 89.8% and a cell viability ([4]; 1 nM) of 102%. The cell viability ([4]; 10 nM) was 73.6%, the cell viability ([4]; 100 nM) was 92.4% and the cell viability ([4]; 1000 nM) was 98%. The cell viability ([4]; 10000 nM) was 88.4%.
With `CC[C@H](C)C(=O)O[C@H]1C[C@@H](C)C=C2C=C[C@H](C)[C@H](CC[C@@H]3C[C@@H](O)CC(=O)O3)[C@H]21` [Lovastatin] the “area under dose-response curve” value ([1]; co-treatment: AZD3965 100 nM) was less than 0.0301, the “area under dose-response curve” value ([1]; co-treatment: DMSO vehicle) was less than 0.0301 and the “area under dose-response curve” value [1, 6] was less than 0.0301. The “area under dose-response curve” value [1, 5] was 0.0554, the cell viability ([2]; 1 nM) was 93.6% and the cell viability ([2]; 10 nM) was 67.8%. For the same compound, the cell viability ([2]; 100 nM) was 114%, the cell viability ([2]; 1000 nM) was 98.8% and the cell viability ([2]; 10000 nM) was 95.4%. For the same compound, the cell viability ([3]; 1 nM) was 98.7%, the cell viability ([3]; 10 nM) was 93.3% and the cell viability ([3]; 100 nM) was 107%. For the same compound, the cell viability ([3]; 1000 nM) was 96.3%, the cell viability ([3]; 10000 nM) was 90.2% and the cell viability ([4]; 1 nM) was 86.4%. It also gave a cell viability ([4]; 10 nM) of 85.7%, a cell viability ([4]; 100 nM) of 83.8% and a cell viability ([4]; 1000 nM) of 87.4%. The cell viability ([4]; 10000 nM) was 74.7%.
With `C[C@](N)(Cc1ccc(O)cc1)C(=O)O` [Metirosine] the “area under dose-response curve” value ([1]; co-treatment: AZD3965 100 nM) was less than 0.0301, the “area under dose-response curve” value ([1]; co-treatment: DMSO vehicle) was less than 0.0301 and the “area under dose-response curve” value [1, 6] was less than 0.0301. For the same compound, the “area under dose-response curve” value [1, 5] was less than 0.0301, the cell viability ([2]; 1 nM) was 107% and the cell viability ([2]; 10 nM) was 95.1%. The cell viability ([2]; 100 nM) was 96.9%, the cell viability ([2]; 1000 nM) was 91.8% and the cell viability ([2]; 10000 nM) was 99.7%. The cell viability ([3]; 1 nM) was 105%, the cell viability ([3]; 10 nM) was 93.9% and the cell viability ([3]; 100 nM) was 94.7%. It also gave a cell viability ([3]; 1000 nM) of 89.3%, a cell viability ([3]; 10000 nM) of 107% and a cell viability ([4]; 1 nM) of 94.4%. The cell viability ([4]; 10 nM) was 81.5%, the cell viability ([4]; 100 nM) was 82.9% and the cell viability ([4]; 1000 nM) was 94.6%. For the same compound, the cell viability ([4]; 10000 nM) was 95.7%.
`CCCCN1C[C@H](O)[C@@H](O)[C@H](O)[C@H]1CO` [Miglustat] was tested, and the “area under dose-response curve” value ([1]; co-treatment: AZD3965 100 nM) was less than 0.0301, the “area under dose-response curve” value ([1]; co-treatment: DMSO vehicle) was less than 0.0301 and the “area under dose-response curve” value [1, 6] was less than 0.0301. The “area under dose-response curve” value [1, 5] was less than 0.0301, the cell viability ([2]; 1 nM) was 90.9% and the cell viability ([2]; 10 nM) was 82.1%. The cell viability ([2]; 100 nM) was 97.8%, the cell viability ([2]; 1000 nM) was 98.1% and the cell viability ([2]; 10000 nM) was 82.9%. For the same compound, the cell viability ([3]; 1 nM) was 92.6%, the cell viability ([3]; 10 nM) was 102% and the cell viability ([3]; 100 nM) was 94.8%. For the same compound, the cell viability ([3]; 1000 nM) was 103%, the cell viability ([3]; 10000 nM) was 93.2% and the cell viability ([4]; 1 nM) was 90%. The cell viability ([4]; 10 nM) was 102%, the cell viability ([4]; 100 nM) was 90.7% and the cell viability ([4]; 1000 nM) was 93.9%. For the same compound, the cell viability ([4]; 10000 nM) was 90.8%.
`CCCCC/C=C\C/C=C\C/C=C\C/C=C\CCCCN1C(=O)C=CC1=O` [N-Arachidonylmaleimide] was tested, and the “area under dose-response curve” value ([1]; co-treatment: AZD3965 100 nM) was less than 0.0301, the “area under dose-response curve” value ([1]; co-treatment: DMSO vehicle) was less than 0.0301 and the “area under dose-response curve” value [1, 6] was less than 0.0301. The “area under dose-response curve” value [1, 5] was less than 0.0301, the cell viability ([2]; 1 nM) was 90.9% and the cell viability ([2]; 10 nM) was 95.7%. The cell viability ([2]; 100 nM) was 100%, the cell viability ([2]; 1000 nM) was 105% and the cell viability ([2]; 10000 nM) was 95%. For the same compound, the cell viability ([3]; 1 nM) was 98.9%, the cell viability ([3]; 10 nM) was 97.9% and the cell viability ([3]; 100 nM) was 101%. The cell viability ([3]; 1000 nM) was 93.1%, the cell viability ([3]; 10000 nM) was 103% and the cell viability ([4]; 1 nM) was 98.8%. It also gave a cell viability ([4]; 10 nM) of 109%, a cell viability ([4]; 100 nM) of 101% and a cell viability ([4]; 1000 nM) of 110%. The cell viability ([4]; 10000 nM) was 88%.
For `CCCCCCCCCCC[C@@H](C[C@@H]1OC(=O)[C@H]1CCCCCC)OC(=O)[C@H](CC(C)C)NC=O` [Orlistat], the “area under dose-response curve” value ([1]; co-treatment: AZD3965 100 nM) was less than 0.0301, the “area under dose-response curve” value ([1]; co-treatment: DMSO vehicle) was less than 0.0301 and the “area under dose-response curve” value [1, 6] was 0.0449. For the same compound, the “area under dose-response curve” value [1, 5] was less than 0.0301, the cell viability ([2]; 1 nM) was 105% and the cell viability ([2]; 10 nM) was 87.9%. The cell viability ([2]; 100 nM) was 90.2%, the cell viability ([2]; 1000 nM) was 97% and the cell viability ([2]; 10000 nM) was 86.9%. It also gave a cell viability ([3]; 1 nM) of 96.2%, a cell viability ([3]; 10 nM) of 99.6% and a cell viability ([3]; 100 nM) of 96.4%. It also gave a cell viability ([3]; 1000 nM) of 100%, a cell viability ([3]; 10000 nM) of 53.3% and a cell viability ([4]; 1 nM) of 140%. It also gave a cell viability ([4]; 10 nM) of 104%, a cell viability ([4]; 100 nM) of 87.9% and a cell viability ([4]; 1000 nM) of 65.3%. For the same compound, the cell viability ([4]; 10000 nM) was 95.2%.
